These results are taken from patent publication US9840494B2, “Quinazoline derivative” (Tianjin Hemay Oncology Pharmaceutical Co., Ltd., priority 2013, dated 2017).

One data set addresses T1, EGFR (Homo sapiens, UniProt P00533).
T1 construct: purchased Invitrogen Company PV3872
Briefly: Inhibitory effect on tyrosine kinase activity of EGFR. Format: biochemical. The conditions noted are these: EGFR 40 ng/ml, ATP 10 μM, 30 min. The procedure:
EGFR: Invitrogen Company, Catalogue No. PV3872
pGT (poly(glutamic acid-tyrosine)): Sigma-Aldrich Company, Catalogue No. P0275
The assay method is briefly described as follows.
3.1.1 At 4° C., 96-well microtiter plate was coated with 0.2 mg/mL pGT (as the substrate of enzyme) dissolved in PBS (phosphate buffer) overnight. Unbound pGT was washed away with a washing solution (0.05% Tween −20 in PBS), and the plate was dried in the air at room temperature for 2 h.
3.1.2 The enzyme reaction was performed in 50 μl reaction system containing 50 mM HEPEs (N-(2-hydroxyethyl)piperazine-N′-2-ethanesulfonic acid), pH 7.5, 0.01% BRIJ-35 (polyoxyethylene lauryl ether), 10 mM MgCl2, 1 mM EGTA (ethylene glycol bis(2-aminoethyl ether)tetraacetic acid), with certain concentrations of ATP (adenosine triphosphate) and kinase, and proceeded for 30 min at room temperature. The phosphate group at the terminal of ATP can be transferred to tyrosine residues of pGT by kinase catalysis so as to phosphorylate the tyrosine residues.
3.1.3 A final concentration of 1% SDS (sodium dodecyl sulfate) was added to terminate the reaction. The phosphorylated tyrosine residues were identified using pY-20. HRP at the end of the antibody enabled TMB to take on color. Then equal amount of 2 N H2SO4 was added to terminate the reaction. OD value, which is positively correlated with the phosphorylation degree of tyrosine residues of pGT, was measured at 450 nm
3.2 The concentrations of the kinase and substrate ATP were determined with reference to the literature “Optimization of a LanthaScreen Kinase assay for EGFR (ErbB1)”(https://tools.lifetechnologies.com/content/sfs/manuals/EGFR_LanthaScreen_actity_Europium.pdf), published by Invitrogen Corporation. The selection criteria for the final concentrations are that the concentration of kinase enabling the yield of the product within the linear range of the detection system and the concentration of ATP approching Km (Michaelis constant) value.
3.3.1 An appropriate amount of a compound was dissolved in DMSO (dimethylsulfoxide) to prepare 2 mM stock solution. Then the stock solution was diluted with DMSO to obtain a working solution with a 50-fold concentration of the highest test concentration, and subjected to a 4-fold gradient dilution to obtain seven concentrations in total.
5 μl 10-fold concentration of ATP dissolved in H2O (the concentration of ATP in EGFR assay is 100 μM, and in Her2 assay is 400 μM) was added to initiate the enzyme reaction followed by reaction at room temperature for 30 min
The mean value of inhibition rate and SD (standard deviation) were determined by duplicate wells. A curve with the concentration of the compound as abscissa and being in logarithmic distribution and the mean value of inhibition rate as ordinate was plotted and fitted using four-parameter logistic function.

The test system of data set [1] is A431 human epidermal carcinoma xenograft. Briefly: A431 human epidermal carcinoma xenograft model. The format is in vivo, nude mice. The settings on record: A431 xenograft, 50 mg/kg intragastric once a day for 14 days. On the procedure:
Tumor cells were cultured in an incubator at 37° C. with 5% CO2 using MEM medium containing 10% inactivated fetal calf serum, 100 U/ml penicillin and 100 µg/ml streptomycin. The tumor cells in logarithmic growth phase were collected, adjusted to an appropriate density and injected subcutaneously into nude mice (0.2 ml per mouse). An xenograft model was established after a tumor was formed in the nude mice and passaged in vivo for more than three generations.
The above-mentioned tumor-bearing mice were sacrificed by cervical dislocation. The tumor was taken out and cut into small tumor pieces (about 2 mm×2 mm×2 mm) under sterile conditions. The small tumor pieces were inoculated subcutaneously into nude mice with a trocar. […] The animals in each group were subjected to intragastric administration once a day for 14 consecutive days. The day of grouping is assigned as day 0.
(§1) Tumor volume is calculated as: volume =0.5×long diameter×short diameter^2. The relative tumor volume (RTV) was calculated based on the measurements as: RTV=Vt/V0, wherein V0 is the tumor volume measured when the animals were grouped to be administrated (i.e., d0), and Vt is the tumor volume when each measurement was taken. Relative tumor proliferation rate T/C was calculated based on relative tumor volume, in which T is the mean value of the relative tumor volume of the treatment group, and C is the mean value of the relative tumor volume of the solvent control group. T/C was calculated as follows: T/C=TRTV/CRTV×100% (TRTV: RTV of the treatment group; CRTV:
RTV of the solvent control group) Inhibition rate (%)=(mean tumor weight of the solvent control group−mean tumor weight of the treatment group)/mean tumor weight of the solvent control group×100%. Percentage of body weight change=Wn/W0×100% (Wn: mean body weight of experimental animals in each group at day n, W0: mean body weight of experimental animals in each group at day 0).
(§2) One-Way ANOVA test was conducted in SPSS13.0, performing statistical analysis between groups.
On the technique in general: Xenograft models place foreign cells or tissue in a host animal.

Data set [2] has as its system HCC827 human non-small cell lung cancer xenograft. In words: HCC827 human non-small cell lung cancer xenograft model. Format: in vivo, nude mice. The conditions noted are these: HCC827 xenograft, 50 mg/kg intragastric daily for 14 days. On the procedure: Tumor cells were cultured in an incubator at 37° C. with 5% CO2 using MEM medium containing 10% inactivated fetal calf serum, 100 U/ml penicillin and 100 μg/ml streptomycin. The tumor cells in logarithmic growth phase were collected, adjusted to an appropriate density and injected subcutaneously into nude mice (0.2 ml per mouse). An xenograft model was established after a tumor was formed in the nude mice and passaged in vivo for more than three generations.
(§3) The above-mentioned tumor-bearing mice were sacrificed by cervical dislocation. The tumor was taken out and cut into small tumor pieces (about 2 mm×2 mm×2 mm) under sterile conditions. The small tumor pieces were inoculated subcutaneously into nude mice on the right shoulder blade with a trocar. […] The animals in each group were subjected to intragastric administration daily for 14 consecutive days. The day of grouping is assigned as day 0.
as §1, with “volume=0.5×long” for “volume =0.5×long”, “CRTV: RTV of the solvent control group) Inhibition rate (%)=(mean tumor weight of the solvent control group−mean tumor weight of the treatment group)/mean tumor weight of the solvent control group x 100%. Percentage of body weight change=Wn/W0×100% (Wn: mean body weight of experimental animals in each group at day n, W0: mean body weight of experimental animals in each group at day 0).” for “CRTV:”
as §2

In data set [3] the test system is FaDu human head and neck cancer xenograft. Briefly: FaDu human head and neck cancer xenograft model. The format is in vivo, nude mice. The conditions noted are these: FaDu xenograft, 50 mg/kg intragastric daily for 14 days. The procedure:
Tumor cells were cultured in an incubator at 37° C. with 5% CO2 using MEM medium containing 10% inactivated fetal calf serum, 100 U/ml penicillin and 100 μg/ml streptomycin. The tumor cells in logarithmic growth phase were collected, adjusted to an appropriate density and injected subcutaneously into nude mice (0.2 ml per mouse). An xenograft model was established after tumor was formed in the nude mice and passaged in vivo for more than three generations.
as §3
as §1, with “volume=0.5×long” for “volume =0.5×long”, “CRTV: RTV of the solvent control group) Inhibition rate (%)=(mean tumor weight of the solvent control group−mean tumor weight of the treatment group)/mean tumor weight of the solvent control group×100%. Percentage of body weight change=Wn/W0×100% (Wn: mean body weight of experimental animals in each group at day n, W0: mean body weight of experimental animals in each group at day 0).” for “CRTV:”
as §2

A short description of data set [4]: Bioavailability assay in rats, Experiment II (dihydrobromide). The conditions noted are these: Wistar rats. The format is in vivo.
Where [5] appears, read: 20 mg/kg tail intravenous injection.
The mark [6] stands for this setting: both sexes, rat, plasma, po, 20 mg/kg intragastric gavage.
[7] abbreviates: both sexes, rat, plasma, 20 mg/kg tail intravenous injection.

Marks after values point to notes of the source that are not given here.

As for `COCCOc1cc2ncnc(Nc3ccc(F)c(Cl)c3)c2cc1NC(=O)C=C1CCN(CCOC)CC1` [Compound 9, N-[4-(3-chloro-4-fluorophenylamino)-7-(2-methoxyethoxy)quinazolin-6-yl]-2-[1-(2-methoxyethyl)piperidin-4-ylidene]acetamide difumarate], the concentration for half-maximal inhibition (IC50) (commonly the concentration that inhibits the measured activity by half) at EGFR is 0.5 nM.
The same measure, in the same setting: as for `COCCOc1cc2ncnc(Nc3ccc(F)c(Cl)c3)c2cc1NC(=O)C=C1CCN(CCOC)CC1` [Compound 11, N-[4-(3-chloro-4-fluorophenylamino)-7-(2-methoxyethoxy)quinazolin-6yl]-2-[1-(2-methoxyethyl)piperidin-4-ylidene]acetamide di(p-toluenesulfonate)], the figure is 0.4 nM.
On EGFR, `COCCOc1cc2ncnc(Nc3ccc(F)c(Cl)c3)c2cc1NC(=O)C=C1CCN(CCOC)CC1` [Compound 10, N-[4-(3-chloro-4-fluorophenylamino)-7-(2-methoxyethoxy)quinazolin-6-yl]-2-[1-(2-methoxyethyl)piperidin-4-ylidene]acetamide dimaleate] displayed an IC50 of 0.3 nM.
Consider `C#Cc1cccc(Nc2ncnc3cc(OCCOC)c(OCCOC)cc23)c1` [Tarceva, reference compound], for which the “Tumor Weight (x ± S.D.)” value in data set [1] was found to be 0.281 ± 0.252 g; in data set [2], 0.067 ± 0.055 g; in data set [3], 0.650 ± 0.267 g. The “Tumor Inhibitor Rate” value in data set [1] (by tumor weight) is recorded as 62.0%; in data set [3] (by tumor weight) it was 40.6%. Further, the T/C (as a rule, the ratio of treated to control) is reported as 47.3% in data set [1] (end of the assay), 5.0% in data set [2] (end of the assay) and 59.9% in data set [3] (end of the assay). The “Tumor Volume (x ± S.D.)” value is on record as 498.9 ± 263.4** mm^3 in data set [1] (end of the assay), 55.3 ± 46.3*** mm^3 in data set [2] (end of the assay) and 709.9 ± 274.9** mm^3 in data set [3] (end of the assay).
At EGFR, “N-[4-(3-chloro-4-fluorophenylamino)-7-(2-methoxyethoxy)quinazolin-6yl]-2-[piperidin-4-ylidene]acetamide disulfate [Compound 5]” yielded an IC50 of 0.3 nM.
As to `Br.Br.COCCOc1cc2ncnc(Nc3ccc(F)c(Cl)c3)c2cc1NC(=O)C=C1CCN(CCOC)CC1` [Example 5, N-[4-(3-chloro-4-fluorophenylamino)-7-(2-methoxyethoxy)quinazolin-6-yl]-2-[1-(2-methoxyethyl)piperidin-4-ylidene]acetamide dihydrobromide], in data set [4] (20 mg/kg intragastric gavage), the CLz/F was 66.48 mL/min/kg and the t½z is reported as 5.564 h. Moreover, in data set [4] (setting [5]), the CLz is 25.8 mL/min/kg and the t½z is 5.514 h. Besides, the bioavailability – broadly, dose-corrected exposure relative to a reference, in per cent – in data set [4] (both sexes, rat, plasma, oral, 20 mg/kg ig vs 20 mg/kg iv) worked out at 42.8%. For the same molecule, in data set [4] (setting [6]), the AUC(0-inf) (as a rule, the area under the concentration-time curve extrapolated to infinity) is 5550 ng·h/mL; the AUC(0-t) (commonly exposure summed from dosing to a finite time, without extrapolation to infinity) came out at 5240 ng·h/mL; the Cmax (usually the highest concentration seen after dosing) came out at 368 ng/mL; the Tmax (commonly the time at which the peak concentration occurs) came out at 6 h. Further, the Vd/F in data set [4] (both sexes, rat, plasma, po, 20 mg/kg intragastric gavage, read-out: Vz/F) worked out at 30.1 L/kg. Also, in data set [4] (setting [7]), the AUC(0-inf) was determined as 13000 ng·h/mL, the area under the curve AUC(0-t) was determined as 12700 ng·h/mL, the Cmax is 3240 ng/mL and the Tmax was 0.083 h. Further, the Vd in data set [4] (both sexes, rat, plasma, 20 mg/kg tail intravenous injection, read-out: Vz) stood at 12.2 L/kg.
Turning to `COCCOc1cc2ncnc(Nc3ccc(F)c(Cl)c3)c2cc1NC(=O)C=C1CCN(CCOC)CC1` [Compound 8, N-[4-(3-chloro-4-fluorophenylamino)-7-(2-methoxyethoxy)quinazolin-6-yl]-2-[1-(2-methoxyethyl)piperidin-4-ylidene]acetamide diphenylsulfonate], inhibition against EGFR was half-maximal at 0.8 nM (IC50).
Molecule `COCCOc1cc2ncnc(Nc3ccc(F)c(Cl)c3)c2cc1NC(=O)C=C1CCN(CCOC)CC1` [Compound 6, N-[4-(3-chloro-4-fluorophenylamino)-7-(2-methoxyethoxy)quinazolin-6-yl]-2-[1-(2-methoxyethyl)piperidin-4-ylidene]acetamide dinitrate] had an IC50 at EGFR of 0.6 nM.
